Earlier results in paper PMC2217447 (The Journal of General Physiology, 2004).
Entries after “also recorded” stand apart in the source; their conditions may differ. Read-outs that look alike come from different tables or passages of the source.

Assays:
[1] = biological target: T1, Shaker B K^+ channels (Drosophila melanogaster, UniProt P08510); conditions: external TEA, ref Gómez-Lagunas, 1997
[2] = biological target: T1, Shaker B K^+ channels; conditions: for effect of external K^+ on block of Shaker (in words): ref Goldstein and Miller, 1993

T1 sequence (P08510 whole entry): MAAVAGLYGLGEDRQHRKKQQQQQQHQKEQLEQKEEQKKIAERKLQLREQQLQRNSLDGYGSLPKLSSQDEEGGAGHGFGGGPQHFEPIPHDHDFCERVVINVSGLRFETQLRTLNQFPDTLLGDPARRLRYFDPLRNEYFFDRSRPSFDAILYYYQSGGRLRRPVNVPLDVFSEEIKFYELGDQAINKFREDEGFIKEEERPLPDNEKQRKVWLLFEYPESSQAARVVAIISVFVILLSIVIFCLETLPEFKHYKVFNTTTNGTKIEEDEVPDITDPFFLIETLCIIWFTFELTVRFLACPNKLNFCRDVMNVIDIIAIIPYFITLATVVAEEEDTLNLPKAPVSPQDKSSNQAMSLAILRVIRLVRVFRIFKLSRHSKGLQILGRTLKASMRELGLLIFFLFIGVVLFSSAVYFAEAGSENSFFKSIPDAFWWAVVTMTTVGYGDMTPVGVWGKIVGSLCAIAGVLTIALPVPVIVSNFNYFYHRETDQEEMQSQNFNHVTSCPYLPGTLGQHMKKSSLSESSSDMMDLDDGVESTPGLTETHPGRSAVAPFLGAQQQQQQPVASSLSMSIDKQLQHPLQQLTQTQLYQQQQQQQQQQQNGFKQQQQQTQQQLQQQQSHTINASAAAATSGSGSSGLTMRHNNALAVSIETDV

**Q.** What does the source list for `CC[N+](CC)(CC)CC` [TEAo, tetraethylammonium]?
**A.** change of binding affinity in 0 K^+ (in words) ([1]; Shaker channels): did not find a significant change in the binding affinity; affinity (Kd) for inhibiting drop of GK vs block of IK (in words) [1]: basically the same affinity (Kd) with which it blocks the K^+ current (IK); effect on collapse of GK in 0 K^+ (in words) [1]: impedes the drop of GK in 0 K^+; also recorded: impedes the collapse of GK; effect on collapse of GK in 0 K^+ (in words) ([1]; listed as TEA): the collapse of GK is prevented

**Q.** Which “effect of external K^+ on binding to Shaker (in words)” value ([2]; ref Ranganathan et al., 1996) does the source give for Agitoxin2 [AgTx2] here?
**A.** Its value is “destabilized by Ko ^+ ions”.

**Q.** With “ChTx R25Q: mutant R25Q (a glutamine substituting arginine in position 25) of ChTx” as the compound, how does the “effect of external K^+ on block of Shaker (in words)” value [2] read?
**A.** Its value is “destabilized by Ko ^+ ions; also recorded: decreased by Ko ^+”.

**Q.** For Charybdotoxin [ChTx], which “effect of external K^+ on block of Shaker (in words)” value [2] is on record?
**A.** Its value is “not altered by external K^+ ions; also recorded: not destabilized by Ko ^+”.
